Experimental findings from ChEMBL document CHEMBL1125968, “5-HT2 antagonist activity of 3-aminomethyltetralones” (Bioorg Med Chem Lett, 1991) are described below.

The structures appear in SMILES notation.

Assay [1] is filed under the species Rattus norvegicus. In words: Tested for the antagonistic activity against serotonin-induced contractions in rat aorta ring strip of endothelium. In kind it is functional, organism-based. The conditions noted are these: read-out: pA2 (converted).
The target in assay [2] is Serotonin 2 (5-HT2) receptor (Rattus norvegicus, UniProt P30994+P08909+P14842). Kind of assay: Tested for the binding affinity towards 5-HT2 receptor measured by [3H]ketanserin binding to frontal cerebral cortex membranes of rat. The assay is classed as tissue-based, Membrane.

Take `O=C1CC(CN2CCC(C(=O)c3ccc(F)cc3)CC2)Cc2ccccc21` (stereo unspecified): the Kb in assay [1] was 13.8 nM.

For `COc1ccccc1N1CCN(CC2CC(=O)c3ccccc3C2)CC1` (stereo unspecified), in assay [1], the Kb is 513 nM. Moreover, the “Log Ki” value in assay [2] is -6.48.

For the compound `O=C(CCCN1CCN(CC2CC(=O)c3ccccc3C2)CC1)c1ccc(F)cc1` (stereo unspecified), the “Log Ki” value in assay [2] is recorded as -7.25.

For `O=C(CCCN1CCN(CC2CC(=O)c3ccc(F)cc3C2)CC1)c1ccc(F)cc1` (stereo unspecified), in assay [1], the Kb is 56.2 nM. Also, in assay [2], the “Log Ki” value is -7.29.
